We go through four compounds from patent US12691103B2 (Jinan University, priority 2022, dated 2026).

Structures can show the parent of a compound that is named as a salt. Ends that are not written are not given here.

One data set concerns busulfan-modeled mice. The settings on record: model group, busulfan 30 mg/kg single intraperitoneal injection; compared with the control group.
Data set [1] deals with men with oligospermia with hypogonadism. The settings on record: cited from earlier work.
The conditions of data set [2]: after administration (oral); cited from earlier work.
In data set [3] the test system is patients with oligospermia. Particulars: GnRH supplementation; cited from earlier work.

Experimental for busulfan-modeled mice: The Kunming mice are injected intraperitoneally with busulfan (30 mg/kg). An average weight of the mice is 27 grams (g). Each mouse is injected with 0.8 mg busulfan. A total of 40 mice are modeled.
After one week of modeling the mice, the average weight of the experimental mice is grams (g). […] The control group and the model group are injected with the equivalent amount of physiological saline.
After the mice are anesthetized and sacrificed, the left epididymal tail is immediately removed for semen analysis. The left testis is stored at −80° C., and the parameters such as protein and messenger ribonucleic acid (mRNA) expression are detected. The right testis and right epididymis are fixed with 4% paraformaldehyde for further histological analysis.
(2) Staining with hematoxylin: the soaked sections are taken out and dried, a hematoxylin staining solution is added to cover the tissue and stained for 3 minutes.
(3) Differentiation: a differentiation solution is dropped at the sections, after 5-6 seconds (s), when observing that the color has faded, the section can be rinsed with the ultrapure water.
(4) Bluing: hematoxylin bluing solution is dropped at the section, after 5-6 seconds, when observing the color blue, the sections can be rinsed with the ultrapure water. […]

As for `CS(=O)(=O)OCCCCOS(C)(=O)=O` [busulfan], in the data set on busulfan-modeled mice, the “structure of seminiferous tubules (HE staining of testes)” value is “severely damages”.
As for `CCN(CC)CCOc1ccc(C(=C(Cl)c2ccccc2)c2ccccc2)cc1` [clomiphene citrate], in data set [1] (12-month treatment), the “bone mineral density of patients” value is on record as “significantly reduce”. Also, in data set [1] (in vivo), the “usefulness in men with oligospermia with hypogonadism” value was “proven to be useful”.
Regarding `Nc1nc2ccc(OC(F)(F)F)cc2s1` [riluzole, 2-amino-6-trifluomethoxy-benzothiazole], the “time to peak of blood concentration” value in data set [2] was 60 to 90 min.
For the compound “GnRH: gonadotropin-releasing hormone supplementation (QHWSYGLRPG; ends and bridges not checked; UniProt P01148 24-33, looked up)”, in data set [3], the “patients who succeed in spermatogenesis” value is 77%.
